Data on 4 compounds can be found in BindingDB's records for doi:10.1021/np980122t (Istituto Per La Chimica Di Molecole Di Interesse Biologico …, 1998).

The nature of assay [1]: Inhibition of bee venom group3 sPLA2 at 10 uM by liquid scintillation counting.
Assay [2] can be described thus: Inhibition of rat air pouch group2 sPLA2 at 10 uM by liquid scintillation counting.
The nature of assay [3]: Inhibition of human synovial group2 sPLA2 at 10 uM by liquid scintillation counting.
A short description of assay [4]: Inhibition of Naja naja venom group1 sPLA2 at 10 uM by liquid scintillation counting.

As usually defined, the IC50 is the midpoint of a concentration-inhibition curve. Read a high IC50 as lower potency. In general, inhibition refers to the percentage by which the read-out fell short of the control. A lower inhibition goes with little suppression. On to `CC1=C(CC/C(C)=C/CCC2=CC[C@H](C3=CC(=O)O[C@H]3O)O[C@H]2O)C(C)(C)CCC1` [5-Hydroxy-4-{(R)-6-hydroxy-5-[(E)-4-methyl-6-(2,6,6-trimethyl-cyclohex-1-enyl)-hex-3-enyl]-3,6-dihydro-2H-pyran-2-yl}-5H-furan-2-one], for which the 50% inhibitory concentration (IC50) turned out to be 62.5 µM in assay [1] and 17 µM in assay [4]. The results for the inhibition in assay [2] and in assay [3] were 38.4% and 93.2%, respectively.
In assay [1], `C=C1CCC[C@H]2[C@](C)(CCC3=CCC(C4=CC(=O)OC4O)OC3)[C@H](C)CC[C@]12C` (stereo partly drawn) [CACOSPONGIONOLIDE B] gave an IC50 of 35.4 µM. The inhibition came to 36.9% in assay [2] and 86.7% in assay [3].
For the compound `C[C@H]1CC[C@@]23C[C@]2(C)CCC[C@@H]3[C@@]1(C)CCC1=CC[C@H](C2=CC(=O)O[C@H]2O)OC1` [cacospongionolide], the inhibition in assay [2] came out at 21.8%; in assay [3] it was 90.7%. The compound also gave an IC50 in assay [4] of 3.5 µM.
`CC1=CCC[C@@H]2[C@@](C)(CCC3=CC[C@H](C4=CC(=O)O[C@H]4O)OC3)[C@@H](C)CC[C@@]12C` [cacospongionolide E] showed an IC50 in assay [1] of 94.8 µM. For the same compound, the results for the inhibition in assay [2] and in assay [3] were 65.1% and 96.7%, respectively.
